For 16 molecules, Kd results are on record in ChEMBL document CHEMBL3991601, “The target landscape of clinical kinase drugs” (Science, 2017).

pKd: −log10 of the molar value. Active and inactive are the calls of the source.

Test [1] addresses Serine/threonine-protein kinase MRCK gamma (Homo sapiens, UniProt Q6DT37).
The target in test [2] is Cell division cycle 7-related protein kinase (Homo sapiens, UniProt O00311).
The target in test [3] is T1, Discoidin domain-containing receptor 2 (Homo sapiens, UniProt Q16832).
T1 sequence (Q16832 whole entry): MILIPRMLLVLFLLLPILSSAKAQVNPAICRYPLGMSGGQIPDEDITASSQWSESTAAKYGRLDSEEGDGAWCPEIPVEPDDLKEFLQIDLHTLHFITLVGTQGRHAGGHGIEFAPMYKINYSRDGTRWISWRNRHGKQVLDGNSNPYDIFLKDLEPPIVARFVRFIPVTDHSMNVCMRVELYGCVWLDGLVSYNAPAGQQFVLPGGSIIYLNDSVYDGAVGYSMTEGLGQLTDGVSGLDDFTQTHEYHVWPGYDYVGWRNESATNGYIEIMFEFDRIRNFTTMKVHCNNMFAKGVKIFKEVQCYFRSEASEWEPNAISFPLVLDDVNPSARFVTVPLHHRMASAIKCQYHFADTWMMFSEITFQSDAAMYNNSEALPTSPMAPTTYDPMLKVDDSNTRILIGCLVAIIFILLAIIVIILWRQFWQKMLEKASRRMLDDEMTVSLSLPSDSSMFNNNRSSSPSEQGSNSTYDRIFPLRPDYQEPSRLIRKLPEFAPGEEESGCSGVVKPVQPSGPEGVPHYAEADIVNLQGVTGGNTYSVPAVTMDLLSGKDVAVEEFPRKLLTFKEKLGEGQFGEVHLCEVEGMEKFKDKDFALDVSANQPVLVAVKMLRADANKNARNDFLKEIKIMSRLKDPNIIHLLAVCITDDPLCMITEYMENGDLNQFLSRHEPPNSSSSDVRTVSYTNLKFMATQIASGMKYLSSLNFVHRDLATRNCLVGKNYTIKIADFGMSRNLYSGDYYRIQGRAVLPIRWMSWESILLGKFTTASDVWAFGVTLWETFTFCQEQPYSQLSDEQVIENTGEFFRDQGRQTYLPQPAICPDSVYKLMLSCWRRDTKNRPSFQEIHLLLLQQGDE

Test [4] addresses Choline-phosphate cytidylyltransferase A (Homo sapiens, UniProt P49585).
The target of test [5] is T2, Structural maintenance of chromosomes protein 1A (Homo sapiens, UniProt Q14683).
T2 sequence (Q14683 whole entry): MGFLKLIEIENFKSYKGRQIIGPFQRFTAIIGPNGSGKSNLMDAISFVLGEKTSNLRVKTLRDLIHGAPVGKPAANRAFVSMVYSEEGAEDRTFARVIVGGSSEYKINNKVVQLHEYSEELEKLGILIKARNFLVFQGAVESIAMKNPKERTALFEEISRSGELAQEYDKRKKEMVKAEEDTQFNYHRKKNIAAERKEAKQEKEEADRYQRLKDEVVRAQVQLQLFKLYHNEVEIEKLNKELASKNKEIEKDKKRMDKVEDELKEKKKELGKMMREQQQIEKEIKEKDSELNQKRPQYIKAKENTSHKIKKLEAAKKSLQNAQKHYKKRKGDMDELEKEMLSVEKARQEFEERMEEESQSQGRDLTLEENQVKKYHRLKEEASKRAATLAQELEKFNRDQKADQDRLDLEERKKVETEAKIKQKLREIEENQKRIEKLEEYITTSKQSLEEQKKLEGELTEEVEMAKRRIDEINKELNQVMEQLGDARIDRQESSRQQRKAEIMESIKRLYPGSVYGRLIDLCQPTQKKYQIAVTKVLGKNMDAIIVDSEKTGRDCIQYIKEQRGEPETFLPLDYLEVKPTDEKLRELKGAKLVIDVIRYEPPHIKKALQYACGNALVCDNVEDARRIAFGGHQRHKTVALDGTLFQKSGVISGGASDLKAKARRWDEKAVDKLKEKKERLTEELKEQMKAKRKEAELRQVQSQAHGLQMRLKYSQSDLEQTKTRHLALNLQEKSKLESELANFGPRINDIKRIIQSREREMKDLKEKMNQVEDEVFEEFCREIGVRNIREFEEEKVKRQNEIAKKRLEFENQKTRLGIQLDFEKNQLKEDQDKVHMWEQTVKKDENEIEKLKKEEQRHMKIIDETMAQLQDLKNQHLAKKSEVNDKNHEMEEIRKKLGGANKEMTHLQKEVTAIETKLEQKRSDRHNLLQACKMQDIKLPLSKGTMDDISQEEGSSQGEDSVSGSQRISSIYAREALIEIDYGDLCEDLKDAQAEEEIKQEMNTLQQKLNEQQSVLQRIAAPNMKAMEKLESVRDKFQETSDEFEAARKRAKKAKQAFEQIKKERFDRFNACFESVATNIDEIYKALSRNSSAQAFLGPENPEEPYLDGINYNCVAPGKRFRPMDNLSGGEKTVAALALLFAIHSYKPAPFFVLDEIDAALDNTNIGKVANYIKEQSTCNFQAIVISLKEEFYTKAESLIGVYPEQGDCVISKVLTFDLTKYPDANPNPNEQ

For test [6], the target named is T3, Dual specificity protein kinase TTK (Homo sapiens, UniProt P33981).
T3 sequence (P33981 whole entry): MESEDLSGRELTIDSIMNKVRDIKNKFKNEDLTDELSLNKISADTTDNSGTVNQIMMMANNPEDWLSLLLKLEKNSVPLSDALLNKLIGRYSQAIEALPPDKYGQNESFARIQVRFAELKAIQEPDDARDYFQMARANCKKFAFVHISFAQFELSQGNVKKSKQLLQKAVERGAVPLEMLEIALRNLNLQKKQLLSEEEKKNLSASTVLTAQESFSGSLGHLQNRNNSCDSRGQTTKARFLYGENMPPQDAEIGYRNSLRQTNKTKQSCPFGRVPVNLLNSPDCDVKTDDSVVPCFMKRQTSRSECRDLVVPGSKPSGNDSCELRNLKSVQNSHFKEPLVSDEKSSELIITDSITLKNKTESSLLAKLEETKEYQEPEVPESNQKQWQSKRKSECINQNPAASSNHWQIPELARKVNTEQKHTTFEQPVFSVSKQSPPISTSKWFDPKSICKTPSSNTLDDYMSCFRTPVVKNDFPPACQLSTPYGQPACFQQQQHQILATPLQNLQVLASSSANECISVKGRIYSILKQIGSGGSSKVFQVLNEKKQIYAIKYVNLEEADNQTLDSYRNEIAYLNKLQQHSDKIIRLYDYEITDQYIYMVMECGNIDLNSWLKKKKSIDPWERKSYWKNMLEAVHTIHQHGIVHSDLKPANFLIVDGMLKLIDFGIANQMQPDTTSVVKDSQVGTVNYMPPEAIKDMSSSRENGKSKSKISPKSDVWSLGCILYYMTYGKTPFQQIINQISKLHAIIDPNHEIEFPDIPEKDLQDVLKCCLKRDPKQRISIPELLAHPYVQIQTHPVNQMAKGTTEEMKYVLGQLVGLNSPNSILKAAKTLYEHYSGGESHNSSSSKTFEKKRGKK
Note: in the data inactive means no Kd found up to 30 µM.

Chain of Cell division cycle 7-related protein kinase (O00311 whole entry, the tested form may be a part): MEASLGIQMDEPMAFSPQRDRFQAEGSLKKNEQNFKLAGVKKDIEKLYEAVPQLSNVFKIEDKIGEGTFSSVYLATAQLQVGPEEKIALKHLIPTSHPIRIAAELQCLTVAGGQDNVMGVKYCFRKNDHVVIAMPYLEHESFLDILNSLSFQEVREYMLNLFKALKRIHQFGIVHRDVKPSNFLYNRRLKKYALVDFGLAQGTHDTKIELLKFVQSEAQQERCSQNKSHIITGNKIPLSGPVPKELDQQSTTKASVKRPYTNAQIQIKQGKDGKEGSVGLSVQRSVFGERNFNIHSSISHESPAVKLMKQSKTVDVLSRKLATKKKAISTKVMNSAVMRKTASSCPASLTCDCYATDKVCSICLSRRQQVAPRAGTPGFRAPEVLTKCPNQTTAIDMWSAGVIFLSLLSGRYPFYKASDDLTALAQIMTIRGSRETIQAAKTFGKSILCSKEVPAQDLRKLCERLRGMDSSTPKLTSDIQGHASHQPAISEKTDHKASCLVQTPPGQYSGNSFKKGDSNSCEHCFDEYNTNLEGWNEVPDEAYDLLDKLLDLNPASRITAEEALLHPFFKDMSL
Chain of Serine/threonine-protein kinase MRCK gamma (Q6DT37 whole entry): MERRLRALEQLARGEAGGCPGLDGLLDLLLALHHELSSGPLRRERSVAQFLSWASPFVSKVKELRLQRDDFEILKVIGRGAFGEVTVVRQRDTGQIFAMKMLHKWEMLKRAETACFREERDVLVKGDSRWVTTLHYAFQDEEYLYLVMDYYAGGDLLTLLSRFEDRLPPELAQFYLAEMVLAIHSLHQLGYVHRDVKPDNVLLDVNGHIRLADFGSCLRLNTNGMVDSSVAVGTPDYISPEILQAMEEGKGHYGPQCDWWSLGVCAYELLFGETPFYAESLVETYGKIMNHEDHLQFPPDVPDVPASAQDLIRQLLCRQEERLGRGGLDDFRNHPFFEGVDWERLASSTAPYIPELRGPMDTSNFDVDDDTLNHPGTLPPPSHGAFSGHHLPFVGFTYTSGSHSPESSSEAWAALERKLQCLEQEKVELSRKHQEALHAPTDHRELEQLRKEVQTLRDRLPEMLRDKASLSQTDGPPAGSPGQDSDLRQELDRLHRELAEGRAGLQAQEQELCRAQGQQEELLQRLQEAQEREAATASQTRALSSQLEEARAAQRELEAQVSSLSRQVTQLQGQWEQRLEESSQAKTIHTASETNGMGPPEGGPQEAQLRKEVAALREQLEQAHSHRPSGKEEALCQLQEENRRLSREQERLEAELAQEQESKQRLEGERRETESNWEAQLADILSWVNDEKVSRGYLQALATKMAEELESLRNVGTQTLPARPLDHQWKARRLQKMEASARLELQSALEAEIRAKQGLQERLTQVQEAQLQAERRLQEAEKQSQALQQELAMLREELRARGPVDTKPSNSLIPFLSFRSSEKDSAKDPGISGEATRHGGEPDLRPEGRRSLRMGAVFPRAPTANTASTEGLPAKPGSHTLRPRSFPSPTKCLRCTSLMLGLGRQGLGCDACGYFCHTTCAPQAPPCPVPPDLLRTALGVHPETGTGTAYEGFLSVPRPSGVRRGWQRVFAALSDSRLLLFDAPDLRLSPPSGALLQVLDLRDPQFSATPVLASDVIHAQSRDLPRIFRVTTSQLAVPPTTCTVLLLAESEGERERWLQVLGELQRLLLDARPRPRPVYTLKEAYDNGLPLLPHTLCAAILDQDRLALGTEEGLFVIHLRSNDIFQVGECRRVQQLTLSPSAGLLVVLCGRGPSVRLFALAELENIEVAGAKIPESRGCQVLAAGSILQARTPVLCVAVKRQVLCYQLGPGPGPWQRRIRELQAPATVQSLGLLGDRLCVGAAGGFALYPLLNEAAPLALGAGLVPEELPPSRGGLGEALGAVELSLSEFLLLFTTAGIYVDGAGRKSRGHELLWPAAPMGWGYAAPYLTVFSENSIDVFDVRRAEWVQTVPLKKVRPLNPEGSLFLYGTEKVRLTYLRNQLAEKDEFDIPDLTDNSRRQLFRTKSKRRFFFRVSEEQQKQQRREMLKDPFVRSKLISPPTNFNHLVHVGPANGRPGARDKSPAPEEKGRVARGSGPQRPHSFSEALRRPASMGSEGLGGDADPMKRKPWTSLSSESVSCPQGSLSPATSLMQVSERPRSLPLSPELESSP
Chain of Choline-phosphate cytidylyltransferase A (P49585 whole entry): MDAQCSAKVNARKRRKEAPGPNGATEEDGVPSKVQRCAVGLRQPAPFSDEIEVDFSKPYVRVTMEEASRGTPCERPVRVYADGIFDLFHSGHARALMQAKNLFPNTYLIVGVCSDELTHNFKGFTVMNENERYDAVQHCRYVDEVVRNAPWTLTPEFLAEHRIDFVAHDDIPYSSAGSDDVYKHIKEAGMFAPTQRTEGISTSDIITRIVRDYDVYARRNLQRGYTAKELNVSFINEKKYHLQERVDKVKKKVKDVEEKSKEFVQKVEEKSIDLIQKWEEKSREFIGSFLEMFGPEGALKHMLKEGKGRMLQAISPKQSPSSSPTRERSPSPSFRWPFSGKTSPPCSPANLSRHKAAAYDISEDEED

For orientation: Kd means the concentration at which binding is half-saturated. Consider `CO[C@H]1C[C@@H]2CC[C@@H](C)[C@@](O)(O2)C(=O)C(=O)N2CCCC[C@H]2C(=O)O[C@H]([C@H](C)C[C@@H]2CC[C@@H](OCCO)[C@H](OC)C2)CC(=O)[C@H](C)/C=C(\C)[C@@H](O)[C@@H](OC)C(=O)[C@H](C)C[C@H](C)/C=C/C=C/C=C/1C` [EVEROLIMUS], for which the Kd in test [1], in test [2], in test [3], in test [4], in test [5] and in test [6] was > 30 µM (inactive) each time.

Turning to `Cc1ccc(NC(=O)c2ccc(CN3CC[C@H](N(C)C)C3)c(C(F)(F)F)c2)cc1Nc1nccc(-c2cncnc2)n1` [BAFETINIB], the Kd was > 30 µM (inactive) in test [1]; 0.048 µM (active) in test [3]; > 30 µM (inactive) in test [4]; > 30 µM (inactive) in test [5]; > 30 µM (inactive) in test [6].

As to `O=C1NC(=O)/C(=C/c2ccc3nccc(-c4ccncc4)c3c2)S1` [GSK-1059615], the Kd in test [1], in test [2], in test [3], in test [5] and in test [6] was > 30 µM (inactive) each time.

In the case of `C[C@@H]1CN(Cc2ccc(F)cc2)[C@@H](C)CN1C(=O)c1cc2c(C(=O)C(=O)N(C)C)cn(C)c2cc1Cl` [TALMAPIMOD], the Kd in test [1], in test [2], in test [3], in test [5] and in test [6] was > 30 µM (inactive) throughout.

In the case of `Cc1ccc(-n2nc(C(C)(C)C)cc2NC(=O)NCc2cc(F)ccc2Oc2ccc3c(cnn3CCO)c2)cc1` [PEXMETINIB], the Kd in test [1] was > 30 µM (inactive); in test [2], > 30 µM (inactive); in test [3], 1.14 µM (active); in test [4], > 30 µM (inactive); in test [5], > 30 µM (inactive); in test [6], > 30 µM (inactive).

Regarding `Cc1cc(Nc2cc(N3CCN(C)CC3)nc(/C=C/c3ccccc3)n2)n[nH]1` [ENMD-2076], the Kd in test [1] is > 30 µM (inactive); in test [3] it was 3.42 µM (active); in test [4] it was > 30 µM (inactive); in test [5], > 30 µM (inactive); in test [6], > 30 µM (inactive).

On to `COc1cc(N2CCC(N3CCN(C)CC3)CC2)ccc1Nc1ncnc(Nc2ccccc2S(=O)(=O)C(C)C)n1` [ASP-3026], for which the Kd in test [1], in test [3], in test [4] and in test [6] was > 30 µM (inactive) each time.

Usually pKd stands for the Kd on a negative log10 scale, so that one unit is a factor of ten. Low values mean a high Kd, high ones a low Kd. On to `CNC(=O)c1cc(Oc2ccc(NC(=O)Nc3ccc(Cl)c(C(F)(F)F)c3)c(F)c2)ccn1` [REGORAFENIB], for which the Kd is > 30 µM (inactive) in test [1], 0.421 µM (active) in test [3], > 30 µM (inactive) in test [4] and > 30 µM (inactive) in test [5]. Besides, in test [6], the pKd is 5.41.

`Cc1cc(-c2cc(O)ccc2Cl)cc2nnc(Nc3ccc(OCCN4CCCC4)cc3)nc12`: the Kd in test [1] was > 30 µM (inactive); in test [2] it was > 30 µM (inactive); in test [3] it was 0.004 µM (active); in test [5] it was > 30 µM (inactive); in test [6] it was > 30 µM (inactive).

For `OCCn1cc(-c2cnc3nnn(Cc4ccc5ncccc5c4)c3n2)cn1` [PF-04217903], the Kd in test [1], in test [2], in test [3], in test [4] and in test [6] was > 30 µM (inactive) throughout.

Take `Cc1cc2c(F)c(Oc3ncnn4cc(OC[C@@H](C)OC(=O)[C@H](C)N)c(C)c34)ccc2[nH]1` [BRIVANIB ALANINATE]: the Kd in test [1], in test [3], in test [4], in test [5] and in test [6] was > 30 µM (inactive) throughout.

`CN1CCC(CNc2ccc3ncc(-c4cccc(OC(F)(F)F)c4)n3n2)CC1` [SGI-1776]: the Kd in test [1], in test [2], in test [3], in test [4], in test [5] and in test [6] was > 30 µM (inactive) in each case.

As for `O=c1sn(-c2cccc3ccccc23)c(=O)n1Cc1ccccc1` [TIDEGLUSIB], the Kd in test [1], in test [2], in test [3], in test [5] and in test [6] was > 30 µM (inactive) throughout.

As to `CN(C)C(=O)c1cc2cnc(Nc3ccc(N4CCNCC4)cn3)nc2n1C1CCCC1` [RIBOCICLIB], the Kd in test [1], in test [3], in test [4], in test [5] and in test [6] was > 30 µM (inactive) throughout.

For the molecule `Cc1cc([C@@H](C)Nc2ccccc2C(=O)O)c2nc(N3CCOCC3)cc(=O)n2c1` [AZD-6482], the Kd in test [1], in test [3], in test [4], in test [5] and in test [6] was > 30 µM (inactive) throughout.

With `CNS(=O)(=O)Nc1nccc(Cc2c(C)c3ccc(Oc4ncccn4)cc3oc2=O)c1F` [AVUTOMETINIB], the Kd in test [1], in test [2], in test [3], in test [5] and in test [6] was > 30 µM (inactive) throughout.
